Test results taken from paper PMC12382614, “(Oxidopyridyl)Porphyrins of Different Lipophilicity: Photophysical Properties, ROS Production and Phototoxicity on Melanoma Cells Under CoCl2-Induced Hypoxia” (Antioxidants, 2025).
Where “and” joins values, the source holds several entries; their conditions need not be identical. Equal values may be shown once.

Assay: Fluorescence decay by time-correlated single-photon counting (TC-SPC)
Assay type: physicochemical
Details: MeOH, N2, λex 405 nm
Experimental: Time-correlated single-photon counting (TC-SPC) was used to obtain information about fluorescence decays. All measurements were performed on an FS5 Edinburgh Instruments device with a pulsed laser at 405 nm wavelength, which was used for the excitation process (pulse duration 60 ps). Fluorescence signals were monitored at 660 nm over 1023 channels, with a time increment of ≈49 ps/channel. Porphyrins were dissolved in MeOH (HPLC grade), with the absorbance adjusted to 0.1 a.u. at the excitation wavelength, and the solution was degassed with N2 for 15 min before the measurements were taken. All the decays were collected until they reached 3000 counts in the peak channel. A scattering solution, a silica gel suspension in H2O, was used to obtain the instrument response function (IRF). The histograms were analysed using a nonlinear least-squares deconvolution method via the software implemented with the instrument.

Structure (SMILES): CCCCCCCCCCCCCCCCCC(=O)Nc1ccc(-c2c3nc(c(-c4ccc[n+]([O-])c4)c4ccc([nH]4)c(-c4ccc[n+]([O-])c4)c4nc(c(-c5ccc[n+]([O-])c5)c5ccc2[nH]5)C=C4)C=C3)cc1 [TOPyP3-C17H35, 5-(4-Octadecanamidophenyl)-10,15,20-tris(1-oxido-3-pyridyl)porphyrin]
- contribution of τ1 (% of the decay): 1%
- contribution of τ2 (% of the decay): 99%
- τFL, longer decay time τ2: 7.82 ± 0.02 ns and 7.82 ns
- τFL, short decay time τ1: 0.57 ± 0.08 ns and 0.57 ns
